In patent US6444617B1, “Fused-heterocycle dicarboxylic acid diamide derivatives or salts thereof, herbicide and usage thereof” (Nihon Nohyaku Co., Ltd., priority 1998, dated 2002):

What was measured:
Assay type in all cases: in vivo
[1] = system: barnyard grass (Echinochloa crus-galli Beauv.); test: Test Example 1: herbicidal effect on paddy field weeds before emergence; settings: Dosage 5 kg/ha
Method: (§1) Test for Herbicidal Effect on Paddy Field Weeds Before Emergence Soil was filled into 1/10000 are pots and brought into a state of paddy field, in which seeds of barnyard grass (Echinochloa crus-galli Beauv.) and bulrush (Scirpus juncoides Roxb.) were made to be before germination. The soil in the pots were treated with a solution containing a predetermined dosage of a chemical agent comprising a compound of the present invention listed in Tables 1 to 14. Twenty one days after the treatment, the herbicidal effect was investigated, the result was compared with that in untreated plot to calculate the weed-controlling rate, and the herbicidal effect was judged according to the following criterion: […]

[2] = system: bulrush (Scirpus juncoides Roxb.); test: as above; settings: Dosage 5 kg/ha
Method: as §1

[3] = system: barnyard grass (Echinochloa crus-galli Beauv.); test: Test Example 2: herbicidal effect on paddy field weeds after emergence; settings: Dosage 5 kg/ha; one-leaved stage; 21 days after treatment
Method: (§2) Test for Herbicidal Effect on Paddy Field Weeds After Emergence. Soil was filled into 1/10000 are pots and brought into a state of paddy field, in which seeds of barnyard grass (Echinochloa crus-galli Beauv.), bulrush (Scirpus juncoides Roxb.) and monochoria (Monochoria vaginalis Presl) were made to reach one-leaved stage. The soil in the pots were treated with a solution containing a predetermined dosage of a chemical agent comprising a compound of the present invention listed in Tables 1 to 14. Twenty one days after the treatment, the herbicidal effect was investigated and the result was compared with that in untreated plot to calculate the weed-controlling rate, and the herbicidal effect was judged according to the same criterion as in Test Example 1.

[4] = system: bulrush (Scirpus juncoides Roxb.); test: as above; settings: Dosage 5 kg/ha; one-leaved stage; 21 days after treatment
Method: as §2

[5] = system: monochoria (Monochoria vaginalis Presl); test: as above; settings: Dosage 5 kg/ha; one-leaved stage; 21 days after treatment
Method: as §2

[6] = system: barnyard grass (Echinochloa crus-galli Beauv.), Ec; test: Test Example 3: herbicidal effect on upland weeds before emergence; settings: dosage 5 kg/ha
Method: (§3) Herbicidal Effect on Upland Weeds Before Emergence […] Then, a liquid preparation of an agent comprising a prescribed concentration of a compound of the present invention (the compounds listed in Tables 1-14) as active ingredient was sprayed. Fourteen days after the treatment, the herbicidal effect was investigated, from which weed-killing rate was calculated in the same manner as in Test Example 1, and the herbicidal effect was judged.

[7] = system: bird's eye speedwell (Veronica persica Poir.), Vp; test: as above; settings: dosage 5 kg/ha
Method: as §3

[8] = system: cleavers (Galium aparine L.), Ga; test: as above; settings: dosage 5 kg/ha
Method: as §3

[9] = system: cocklebur (Xanthium strumarium L.), Xs; test: as above; settings: dosage 5 kg/ha
Method: as §3

[10] = system: forxtail grass (Alopecurus aequalis var. amurensis Ohwi), Am; test: as above; settings: foxtail grass, dosage 5 kg/ha
Method: as §3

[11] = system: velvetleaf (Abutilon theophtasti L.), At; test: as above; settings: dosage 5 kg/ha
Method: as §3

[12] = system: soybean plant (So); test: Test Example 3: phytotoxicity to upland crop plants, treatment before emergence; settings: dosage 5 kg/ha
Method: (§4) Herbicidal Effect on Upland Weeds Before Emergence […] Then, a liquid preparation of an agent comprising a prescribed concentration of a compound of the present invention (the compounds listed in Tables 1-14) as active ingredient was sprayed. Fourteen days after the treatment, the herbicidal effect was investigated, from which weed-killing rate was calculated in the same manner as in Test Example 1, and the herbicidal effect was judged. At the same time, phytotoxicity to soybean plant and wheat was investigated and judged according to the criterion mentioned below.

[13] = system: wheat (Wh); test: as above; settings: dosage 5 kg/ha
Method: as §4

[14] = system: barnyard grass (Echinochloa crus-galli Beauv.), Ec; test: Test Example 4: herbicidal effect on upland weeds after emergence; settings: dosage 5 kg/ha; sprayed after emergence; judged 14 days after treatment
Source text: (§5) Herbicidal Effect on Upland Weeds After Emergence Polyethylene-made vats having a size of 10 cm (length)×20 cm (width)×5 cm (height) were filled with soil, sown with seeds of the following noxious upland weeds and with seeds of soybean plant and wheat as upland crop plants, and then covered with soil. The plants were made to grow up until they reached the leaf-stages mentioned below, after which an agent comprising a prescribed concentration of a compound of the present invention (listed in Tables 1 to 14) as active ingredient was sprayed. Fourteen days after the treatment, the herbicidal effect was investigated, from which weed-killing rate was calculated in the same manner as in Test Example 1 and the results were judged. […] Sample weeds, their leaf stages, and leaf stages of soybean plant and wheat were as follows: [table]

[15] = system: bird's eye speedwell (Veronica persica Poir.), Vp; test: as above; settings: dosage 5 kg/ha; sprayed after emergence; judged 14 days after treatment
Source text: as §5

[16] = system: cleavers (Galium aparine L.), Ga; test: as above; settings: dosage 5 kg/ha; sprayed after emergence; judged 14 days after treatment
Source text: as §5

[17] = system: cocklebur (Xanthium strumarium L.), Xs; test: as above; settings: dosage 5 kg/ha; sprayed after emergence; judged 14 days after treatment
Source text: as §5

[18] = system: forxtail grass (Alopecurus aequalis var. amurensis Ohwi), Am; test: as above; settings: dosage 5 kg/ha; sprayed after emergence; judged 14 days after treatment
Source text: as §5

[19] = system: velvetleaf (Abutilon theophtasti L.), At; test: as above; settings: dosage 5 kg/ha; sprayed after emergence; judged 14 days after treatment
Source text: as §5

[20] = system: soybean plant; test: Test Example 4: phytotoxicity to upland crop plants, treatment after emergence; settings: dosage 5 kg/ha, sprayed after emergence, judged 14 days after treatment
Source text: as §5

[21] = system: wheat; test: as above; settings: dosage 5 kg/ha, sprayed after emergence, judged 14 days after treatment
Source text: as §5

SMILES	Pre-emergence treatment Barnyard grass (herbicidal effect) [1]	Pre-emergence treatment Bulrush (herbicidal effect) [2]	Post-emergence treatment Barnyard grass (herbicidal effect) [3]	Post-emergence treatment Bulrush (herbicidal effect) [4]	Post-emergence treatment Monochoria (herbicidal effect) [5]	Herbicidal effect Ec [6]	Herbicidal effect Vp [7]	Herbicidal effect Ga [8]	Herbicidal effect Xs [9]	Herbicidal effect Am [10]	Herbicidal effect At [11]	Phytotoxicity So [12]	Phytotoxicity Wh [13]	Herbicidal effect Ec [14]	Herbicidal effect Vp [15]	Herbicidal effect Ga [16]	Herbicidal effect Xs [17]	Herbicidal effect Am [18]	Herbicidal effect At [19]	Phytotoxicity So [20]	other results
CCCNC(=O)c1nc2c(cc1C(=O)Nc1c(CC)ccc(Cl)c1CC)nc(C)n2C [compound 1294]	5 (Weed-killing rate is 100%.)	5 (Weed-killing rate is 100%.)	5 (Weed-killing rate is 100%.)	5 (Weed-killing rate is 100%.)	5 (Weed-killing rate is 100%.)	5 (Weed-killing rate is 100%.)	5 (Weed-killing rate is 100%.)	5 (Weed-killing rate is 100%.)	5 (Weed-killing rate is 100%.)	5 (Weed-killing rate is 100%.)	5 (Weed-killing rate is 100%.)	4 (Crop-killing rate is 90-99%.)	5 (Crop-killing rate is 100%.)	5 (Weed-killing rate is 100%.)	5 (Weed-killing rate is 100%.)	5 (Weed-killing rate is 100%.)	5 (Weed-killing rate is 100%.)	5 (Weed-killing rate is 100%.)	5 (Weed-killing rate is 100%.)	4 (Crop-killing rate is 90-99%.)	Phytotoxicity Wh [21]: 5 (Crop-killing rate is 100%.)
CCCNC(=O)c1nc2cnn(C)c2cc1C(=O)Nc1c(CC)ccc(Cl)c1CC [compound 1173]	5 (Weed-killing rate is 100%.)	5 (Weed-killing rate is 100%.)	5 (Weed-killing rate is 100%.)	5 (Weed-killing rate is 100%.)	5 (Weed-killing rate is 100%.)	5 (Weed-killing rate is 100%.)	5 (Weed-killing rate is 100%.)	5 (Weed-killing rate is 100%.)	5 (Weed-killing rate is 100%.)	5 (Weed-killing rate is 100%.)	5 (Weed-killing rate is 100%.)	5 (Crop-killing rate is 100%.)	5 (Crop-killing rate is 100%.)	5 (Weed-killing rate is 100%.)	5 (Weed-killing rate is 100%.)	5 (Weed-killing rate is 100%.)	5 (Weed-killing rate is 100%.)	5 (Weed-killing rate is 100%.)	5 (Weed-killing rate is 100%.)	5 (Crop-killing rate is 100%.)	Phytotoxicity Wh [21]: 5 (Crop-killing rate is 100%.)
CCCNC(=O)c1nc2c(cc1C(=O)Nc1c(CC)ccc(Cl)c1CC)CCOC2 [compound 438]	5 (Weed-killing rate is 100%.)	5 (Weed-killing rate is 100%.)	5 (Weed-killing rate is 100%.)	5 (Weed-killing rate is 100%.)	5 (Weed-killing rate is 100%.)	5 (Weed-killing rate is 100%.)	5 (Weed-killing rate is 100%.)	5 (Weed-killing rate is 100%.)	5 (Weed-killing rate is 100%.)	5 (Weed-killing rate is 100%.)	5 (Weed-killing rate is 100%.)	5 (Crop-killing rate is 100%.)	5 (Crop-killing rate is 100%.)	5 (Weed-killing rate is 100%.)	5 (Weed-killing rate is 100%.)	5 (Weed-killing rate is 100%.)	5 (Weed-killing rate is 100%.)	5 (Weed-killing rate is 100%.)	5 (Weed-killing rate is 100%.)	4 (Crop-killing rate is 90-99%.)	Phytotoxicity Wh [21]: 5 (Crop-killing rate is 100%.)
CCc1ccc(Cl)c(CC)c1NC(=O)c1cc2ccccc2nc1C(=O)NCC(C)(C)C [359-5]	5 (Weed-killing rate is 100%.)	5 (Weed-killing rate is 100%.)	5 (Weed-killing rate is 100%.)	5 (Weed-killing rate is 100%.)	5 (Weed-killing rate is 100%.)	5 (Weed-killing rate is 100%.)	5 (Weed-killing rate is 100%.)	5 (Weed-killing rate is 100%.)	5 (Weed-killing rate is 100%.)	5 (Weed-killing rate is 100%.)	5 (Weed-killing rate is 100%.)	0 (Crop-killing rate is 0-20% (No Phytotoxicity).)	0 (Crop-killing rate is 0-20% (No Phytotoxicity).)	5 (Weed-killing rate is 100%.)	5 (Weed-killing rate is 100%.)	5 (Weed-killing rate is 100%.)	5 (Weed-killing rate is 100%.)	5 (Weed-killing rate is 100%.)	5 (Weed-killing rate is 100%.)	2 (Crop-killing rate is 40-69%.)	Phytotoxicity Wh [21]: 3 (Crop-killing rate is 70-89%.)
